Results as given in patent US20150328245A1, “Agents for Eliminating Tumour-Initiating Cells” (priority 2012, published 2015).

What was measured:
[1] = In vivo maximum tolerated dose assay for compound I-2; design: species or system BALB/c mice
Protocol: In vivo maximum tolerated dose (MTD) toxicity assay was carried out to evaluate the highest dose of a pharmaceutical treatment that will produce the desired effect without unacceptable toxicity. The purpose of administering MTD is to determine whether long-term exposure to a compound might lead to unacceptable adverse health effects in a subject, when the level of exposure is not sufficient to cause premature mortality due to short-term toxic effects.
An exemplary procedure for the in vivo maximum tolerated dose toxicity assay follows. A statistically appropriate number of FEMALE BALB/c MICE were interperitoneally treated with the compound I-2 at three different dose levels 3 mg/kg, 1 mg/kg, and 0.3 mg/kg. Body weight and clinical sign of all the animals were observed daily during dosing and post dosing period.

DU145 = assay: In vitro colorimetric cell death assay (MTT); type: cell-based; details: Homo sapiens, DU-145; DU145, MTT, 48 hours; read-out: IC 50
Protocol: (§1) It's an in vitro colorimetric assay for assessing cell viability where the cells are grown in Two-dimensional surface.
(§2) An exemplary procedure for the assay follows. Cancer cells and normal cells were plated in a 96 well plate as per predetermined plating efficiency. The plate was incubated for 24 hours in a 5% CO2 atmosphere at 37 degrees Celsius, a range of concentrations of the compounds I-1, I-2 and I-3 as well as cisplatin (known chemotherapeutic agents) were added to the separate wells, the plate was incubated further for 48 hours in a 5% CO2 atmosphere, the plate was centrifuged twice at 3000 rpm for 3 minutes, the supernatant fluid was discarded, 100 uL of 0.5 mg/mL MTT solution was added and the plate was incubated for 4 hours in a 5% CO2 atmosphere at 37 degrees Celsius. The plate was then centrifuged twice at 3000 rpm for 3 minutes, supernatant, was aspirated very carefully, 200 uL DMSO was added to each well to solubilize MTT crystals and mixed well by shaking the plate, the plate was incubated for 10 minutes in a 5% CO2 atmosphere at 37 degrees Celsius, the plate placed on the shaker of an ELISA plate reader and the absorbance at 570 nm was measured, then the percentage of viable cells remaining was calculated by first subtracting the background absorbance then comparing to the absorbance of a non-drug-treated cell sample, and the results were plotted on a graph to determine the IC50 for the compounds and cisplatin.

[2] = test system: MCF10A (normal breast cell line); assay: In vitro colorimetric cell death assay (MTT); type: cell-based; details: 48 hours
Protocol: as §1, §2

MCF-7 = assay: In vitro colorimetric cell death assay (MTT); type: cell-based; details: Homo sapiens, MCF7; MCF-7, MTT, 48 hours
Protocol: as §1, §2

MDAMB231 = assay: In vitro colorimetric cell death assay (MTT); type: cell-based; details: Homo sapiens, MDA-MB-231, 48 hours
Protocol: as §1, §2

L 929 = assay: In vitro colorimetric cell death assay (MTT); type: cell-based; details: Mus musculus, L929; L 929, MTT, 48 hours; read-out: IC 50
Protocol: as §1, §2

cancer cell lines = assay: In vitro colorimetric cell death assay (MTT), overall statement; type: cell-based
Protocol: as §1, §2

COc1cc2c(OC3OCC(OC)C(OC)C3O)c3c(c(-c4ccc5c(c4)OCO5)c2cc1OC)C(=O)OC3 (centres unmarked) [I-2]
toxicity finding of the given dose ([1]; 0.3 mg/kg q7d×4 i.p.): safe
toxicity finding of the given dose ([1]; 1 mg/kg q7d×4 i.p.): safe
mortality ([1]; 3 mg/kg q7d×4 i.p.): more than one mortality
toxicity finding of the given dose ([1]; 3 mg/kg q7d×4 i.p.): toxic
Mean body weight ([1]; G1 3 mg/kg q7dX4, day 1): 2 g
Mean body weight ([1]; G1 3 mg/kg q7dX4, day 2): 2 g
Mean body weight ([1]; G1 3 mg/kg q7dX4, day 3): 2 g
Mean body weight ([1]; G1 3 mg/kg q7dX4, day 4): 2 g
Mean body weight ([1]; G1 3 mg/kg q7dX4, day 5): 2 g
Mean body weight ([1]; G1 3 mg/kg q7dX4, day 6): 2 g
Mean body weight ([1]; G1 3 mg/kg q7dX4, day 7): 2 g
Mean body weight ([1]; G1 3 mg/kg q7dX4, day 8): 2 g
Mean body weight ([1]; G1 3 mg/kg q7dX4, day 9): 2 g
Mean body weight ([1]; G1 3 mg/kg q7dX4, day 10): 2 g
Mean body weight ([1]; G1 3 mg/kg q7dX4, day 11): 2 g
Mean body weight ([1]; G1 3 mg/kg q7dX4, day 12): 2 g
Mean body weight ([1]; G1 3 mg/kg q7dX4, day 13): 2 g
Mean body weight ([1]; G1 3 mg/kg q7dX4, day 14): 2 g
Mean body weight ([1]; G1 3 mg/kg q7dX4, day 15): 2 g
Mean body weight ([1]; G1 3 mg/kg q7dX4, day 16): 2 g
Mean body weight ([1]; G1 3 mg/kg q7dX4, day 17): 2 g
Mean body weight ([1]; G1 3 mg/kg q7dX4, day 18): 2 g
Mean body weight ([1]; G1 3 mg/kg q7dX4, day 19): 2 g
Mean body weight ([1]; G1 3 mg/kg q7dX4, day 20): 2 g
Mean body weight ([1]; G1 3 mg/kg q7dX4, day 21): 2 g
Mean body weight ([1]; G1 3 mg/kg q7dX4, day 22): 2 g
Mean body weight ([1]; G1 3 mg/kg q7dX4, day 23): 2 g
Mean body weight ([1]; G1 3 mg/kg q7dX4, day 24): 2 g
Mean body weight ([1]; G1 3 mg/kg q7dX4, day 25): 2 g
Mean body weight ([1]; G1 3 mg/kg q7dX4, day 26): 2 g
Mean body weight ([1]; G1 3 mg/kg q7dX4, day 27): 2 g
Mean body weight ([1]; G1 3 mg/kg q7dX4, day 28): 2 g
Mean body weight ([1]; G1 3 mg/kg q7dX4, day 29): 2 g
Mean body weight ([1]; G2 1 mg/kg q7dX4, day 1): 23. g
Mean body weight ([1]; G2 1 mg/kg q7dX4, day 2): 23. g
Mean body weight ([1]; G2 1 mg/kg q7dX4, day 3): 23. g
Mean body weight ([1]; G2 1 mg/kg q7dX4, day 4): 24. g
Mean body weight ([1]; G2 1 mg/kg q7dX4, day 5): 24. g
Mean body weight ([1]; G2 1 mg/kg q7dX4, day 6): 24. g
Mean body weight ([1]; G2 1 mg/kg q7dX4, day 7): 24. g
Mean body weight ([1]; G2 1 mg/kg q7dX4, day 8): 24. g
Mean body weight ([1]; G2 1 mg/kg q7dX4, day 9): 24. g
Mean body weight ([1]; G2 1 mg/kg q7dX4, day 10): 24. g
Mean body weight ([1]; G2 1 mg/kg q7dX4, day 11): 24. g
Mean body weight ([1]; G2 1 mg/kg q7dX4, day 12): 24. g
Mean body weight ([1]; G2 1 mg/kg q7dX4, day 13): 25. g
Mean body weight ([1]; G2 1 mg/kg q7dX4, day 14): 24. g
Mean body weight ([1]; G2 1 mg/kg q7dX4, day 15): 24. g
Mean body weight ([1]; G2 1 mg/kg q7dX4, day 16): 25. g
Mean body weight ([1]; G2 1 mg/kg q7dX4, day 17): 25. g
Mean body weight ([1]; G2 1 mg/kg q7dX4, day 18): 25. g
Mean body weight ([1]; G2 1 mg/kg q7dX4, day 19): 25. g
Mean body weight ([1]; G2 1 mg/kg q7dX4, day 20): 25. g
Mean body weight ([1]; G2 1 mg/kg q7dX4, day 21): 25. g
Mean body weight ([1]; G2 1 mg/kg q7dX4, day 22): 25. g
Mean body weight ([1]; G2 1 mg/kg q7dX4, day 23): 25. g
Mean body weight ([1]; G2 1 mg/kg q7dX4, day 24): 25. g
Mean body weight ([1]; G2 1 mg/kg q7dX4, day 25): 25. g
Mean body weight ([1]; G2 1 mg/kg q7dX4, day 26): 26. g
Mean body weight ([1]; G2 1 mg/kg q7dX4, day 27): 25. g
Mean body weight ([1]; G2 1 mg/kg q7dX4, day 28): 25. g
Mean body weight ([1]; G2 1 mg/kg q7dX4, day 29): 25. g
Mean body weight ([1]; G3 0.3 mg/kg q7dX4, day 1): 2 g
Mean body weight ([1]; G3 0.3 mg/kg q7dX4, day 2): 2 g
Mean body weight ([1]; G3 0.3 mg/kg q7dX4, day 3): 2 g
Mean body weight ([1]; G3 0.3 mg/kg q7dX4, day 4): 2 g
Mean body weight ([1]; G3 0.3 mg/kg q7dX4, day 5): 2 g
Mean body weight ([1]; G3 0.3 mg/kg q7dX4, day 6): 2 g
Mean body weight ([1]; G3 0.3 mg/kg q7dX4, day 7): 2 g
Mean body weight ([1]; G3 0.3 mg/kg q7dX4, day 8): 2 g
Mean body weight ([1]; G3 0.3 mg/kg q7dX4, day 9): 2 g
Mean body weight ([1]; G3 0.3 mg/kg q7dX4, day 10): 2 g
Mean body weight ([1]; G3 0.3 mg/kg q7dX4, day 11): 2 g
Mean body weight ([1]; G3 0.3 mg/kg q7dX4, day 12): 2 g
Mean body weight ([1]; G3 0.3 mg/kg q7dX4, day 13): 2 g
Mean body weight ([1]; G3 0.3 mg/kg q7dX4, day 14): 2 g
Mean body weight ([1]; G3 0.3 mg/kg q7dX4, day 15): 2 g
Mean body weight ([1]; G3 0.3 mg/kg q7dX4, day 16): 2 g
Mean body weight ([1]; G3 0.3 mg/kg q7dX4, day 17): 2 g
Mean body weight ([1]; G3 0.3 mg/kg q7dX4, day 18): 2 g
Mean body weight ([1]; G3 0.3 mg/kg q7dX4, day 19): 2 g
Mean body weight ([1]; G3 0.3 mg/kg q7dX4, day 20): 2 g
Mean body weight ([1]; G3 0.3 mg/kg q7dX4, day 21): 2 g
Mean body weight ([1]; G3 0.3 mg/kg q7dX4, day 22): 2 g
Mean body weight ([1]; G3 0.3 mg/kg q7dX4, day 23): 2 g
Mean body weight ([1]; G3 0.3 mg/kg q7dX4, day 24): 2 g
Mean body weight ([1]; G3 0.3 mg/kg q7dX4, day 25): 2 g
Mean body weight ([1]; G3 0.3 mg/kg q7dX4, day 26): 2 g
Mean body weight ([1]; G3 0.3 mg/kg q7dX4, day 27): 2 g
Mean body weight ([1]; G3 0.3 mg/kg q7dX4, day 28): 2 g
Mean body weight ([1]; G3 0.3 mg/kg q7dX4, day 29): 2 g
body weight / growth pattern ([1]; group G1 3 mg/kg q7d×4): decreased body weight after first treatment then they showed normal growth pattern
Percentage Body weight change ([1]; group G1 3 mg/kg q7d×4, day 2): −3.2%
body weight / growth pattern ([1]; group G2 1 mg/kg q7d×4): normal growth pattern throughout the experimental period
body weight gain compared to other treatment groups ([1]; group G2 1 mg/kg q7d×4): maximum body weight gain
body weight / growth pattern ([1]; group G3 0.3 mg/kg q7d×4): decreased body weight after first treatment then they showed normal growth pattern
body weight gain as compared to group G1 ([1]; group G3 0.3 mg/kg q7d×4): marginal body weight gain
Percentage Body weight change ([1]; group G3 0.3 mg/kg q7d×4, day 3): −3.8%
IC50 (DU145): 2.45 µM
IC50 [2]: No Activity
IC50 (MCF-7): 0.954 µM
IC50 (MDAMB231): 0.331 µM
IC50 (L 929): 1.38 µM
anticancer activity in cancer cell lines as compared to cisplatin (cancer cell lines): high anticancer activity
